In patent publication US4202802A, “Peptides related to somatostatin” (Eli Lilly and Company, priority 1978, dated 1980):
“And” between values parts separate entries of the source, which are not always exact repeats. Identical values can stand only once. Bridge positions count the residues as written; N and C are the ends. Square brackets hold non-standard residues; d marks the D form. Peptide text beside a SMILES is read from it.

Assays:
[1] = test system: serum glucagon; test: Glucagon Inhibition In Dogs (I.V. infusion of test compound with L-alanine infusion, serum glucagon by radioimmunoassay); assay type: in vivo, dog; conditions: for inhibition of glucagon concentration: fasted dog, I.V. infusion, doses: Example 4 0.147, Example 7 0.182, Example 10 0.247 μg/kg/min, Example 14 0.092, 0.126, 0.128, 0.198 μg/kg/min and 0.305 mg/kg/min
Method: (§1) A normal dog is fasted overnight. An intravenous (I.V.) infusion of the test compound (dissolved in saline) is begun. Thirty minutes thereafter an additional infusion of L-alanine (dissolved in saline) is begun and is continued for a total of 15 minutes so that a total dose of about 1 mmole of L-alanine per kg. body weight is given. Infusion of the test compound is continued for an additional 15 minute period.
(§2) Blood samples are taken periodically before (at -20, -10 and -1 minutes) and after (5, 10, 15, 30, 35, 40, 45, 50, 60, 90, 120 and 150 minutes) the start of the infusion of the test compound. The serum insulin and serum glucagon concentrations in the blood are determined by radioimmunoassay. A plot is made of the glucagon and insulin concentrations versus time. The plot obtained from the test compound is compared to plots obtained from somatostatin and saline (controls) in similar experiments.
(§3) Infusion of L-alanine (in the absence of somatostatin or active test compound) causes an abrupt increase in serum insulin and glucagon concentrations. The concentrations return to basal levels after the L-alanine infusion is terminated. Infusion of somalostatin (alone) causes a decrease in basal serum concentrations of insulin and glucagon.

[2] = test system: growth hormone (GH) secretion; test: Growth Hormone Inhibition In Rats (pentobarbital-stimulated GH secretion, serum GH by radioimmunoassay); assay type: in vivo; conditions: male rats, peptide S.C.; for Serum Growth Hormone Conc. Mean ± SEM: pentobarbital 4 mg/rat I.P.
Method: This test is a modification of the method of P. Brazeau et al. Endocrinology, 94, 184 (1974). Male rats (weighing 100-110 g.) are divided into three groups of eight rats each. Each rat is administered sodium pentobarbital at a dose of 4 mg/rat (I.P.) to stimulate growth hormone (GH) secretion. Simultaneously, one group of rats receives the test compound (S.C.); the second group receives somatostatin (S.C.); and the third group (control) receives saline (S.C.). Twenty-minutes later, the animals are decapitated and blood samples are collected. The serum concentration of growth hormone (GH) is determined by radioimmunoassay. The mean GH concentration (±standard error of the mean) is calculated for each group. The percent inhibition of GH release (as compared to saline controls) is then calculated for the test compound and for somatostatin. When tested as above-described, the peptides of Example 4, 7, 10, and 14, representative of the peptides of Formula III, gave the results set forth below in Table I: […]

[3] = test system: serum insulin; test: Insulin Inhibition In Dogs (I.V. infusion of test compound with L-alanine infusion, serum insulin by radioimmunoassay); assay type: in vivo, dog; conditions: for inhibition of insulin concentration: fasted dog, I.V. infusion, doses: Example 4 0.147, Example 7 0.182, Example 10 0.247 μg/kg/min, Example 14 0.092, 0.126, 0.128, 0.198 μg/kg/min and 0.305 mg/kg/min
Method: as §1, §2, §3

[4] = Dose (mg/kg) 2, 20 min after dosing
[5] = Dose (mg/kg) 50, 20 min after dosing
[6] = dog, in the presence of L-alanine
[7] = dog, infusion alone (no L-alanine)

Compound | inhibition of glucagon concentration [1] | Serum Growth Hormone Conc. Mean ± SEM [2, 4] | Serum Growth Hormone Conc. Mean ± SEM [2, 5] | % Inhibition of GH release (as compared to saline controls) ([2]; Dose (mg/kg) 2) | % Inhibition of GH release (as compared to saline controls) ([2]; Dose (mg/kg) 50) | inhibition of insulin concentration [3] | effect on the increase in glucagon concentration induced by L-alanine [1, 6] | effect on basal serum concentration of glucagon [1, 7] | effect on the increase in insulin concentration induced by L-alanine [3, 6] | effect on basal serum concentration of insulin [3, 7]
CC(C)[C@@H](N)C(=O)NCC(=O)N[C@H]1CSSC[C@@H](C(=O)O)NC(=O)[C@H](CO)NC(=O)[C@H]([C@@H](C)O)NC(=O)[C@@H](Cc2ccccc2)NC(=O)[C@H]([C@@H](C)O)NC(=O)[C@H](CCCCN)NC(=O)[C@@H](Cc2c[nH]c3ccccc23)NC(=O)[C@H](Cc2ccccc2)NC(=O)[C@@H](Cc2ccccc2)NC(=O)[C@H](C)NC(=O)[C@H](CCCCN)NC1=O [Example 4, D-Valyl-L-glycyl-L-cysteinyl-L-lysyl-L-alanyl-D-phenylalanyl-L-phenylalanyl-D-tryptophyl-L-lysyl-L-threonyl-D-phenyl-alanyl-L-threonyl-L-seryl-L-cysteine cyclic (3->14) disulfide] (H-[dV]GCKA[dF]F[dW]KT[dF]TSC-OH; disulfide 3-14) | no significant inhibition | 72.1 ± 27.3 ng/mL | 31.9 ± 16.6 ng/mL | 27.9% | 68.1% | no significant inhibition | – | – | – | –
CC(C)[C@@H](N)C(=O)NCC(=O)N[C@H]1CSSC[C@@H](C(=O)O)NC(=O)[C@H](CO)NC(=O)[C@H]([C@@H](C)O)NC(=O)[C@@H](Cc2ccccc2)NC(=O)[C@H]([C@@H](C)O)NC(=O)[C@H](CCCCN)NC(=O)[C@@H](Cc2c[nH]c3ccccc23)NC(=O)[C@H](Cc2ccccc2)NC(=O)[C@H](Cc2ccccc2)NC(=O)[C@H](C)NC(=O)[C@H](CCCCN)NC1=O [Example 7, D-Valyl-L-glycyl-L-cysteinyl-L-lysyl-L-alanyl-L-phenylalanyl-L-phenylalanyl-D-tryptophyl-L-lysyl-L-threonyl-D-phenyl-alanyl-L-threonyl-L-seryl-L-cysteine cyclic (3->14) disulfide] (H-[dV]GCKAFF[dW]KT[dF]TSC-OH; disulfide 3-14) | no significant inhibition | 94.7 ± 22 ng/mL | 38.7 ng/mL | 45.9% | 77.5% | no significant inhibition | – | – | – | –
CC(C)C[C@@H]1NC(=O)[C@H](C)NC(=O)[C@H](CCCCN)NC(=O)[C@@H](NC(=O)CNC(=O)[C@H](N)C(C)C)CSSC[C@@H](C(=O)O)NC(=O)[C@H](CO)NC(=O)[C@H]([C@@H](C)O)NC(=O)[C@@H](Cc2ccccc2)NC(=O)[C@H]([C@@H](C)O)NC(=O)[C@H](CCCCN)NC(=O)[C@@H](Cc2c[nH]c3ccccc23)NC(=O)[C@H](Cc2ccccc2)NC1=O [Example 10, D-Valyl-L-glycyl-L-cysteinyl-L-lysyl-L-alanyl-L-leucyl-L-phenylalanyl-D-tryptophyl-L-lysyl-L-threonyl-D-phenylalanyl-L-threonyl-L-seryl-L-cysteine cyclic (3->14) disulfide] (H-[dV]GCKALF[dW]KT[dF]TSC-OH; disulfide 3-14) | no significant inhibition | 82.8 ± 19.6 ng/mL | 93.5 ± 22.6 ng/mL | 37.3% | 29.3% | no significant inhibition | – | – | – | –
C[C@H](N)C(=O)N[C@H](C)C(=O)N[C@H]1CSSC[C@@H](C(=O)O)NC(=O)[C@H](CO)NC(=O)[C@H]([C@@H](C)O)NC(=O)[C@@H](Cc2ccccc2)NC(=O)[C@H]([C@@H](C)O)NC(=O)[C@H](CCCCN)NC(=O)[C@@H](Cc2c[nH]c3ccccc23)NC(=O)[C@H](Cc2ccccc2)NC(=O)[C@H](Cc2ccccc2)NC(=O)[C@H](C)NC(=O)[C@H](CCCCN)NC1=O [Example 14, L-Alanyl-D-alanyl-L-cysteinyl-L-lysyl-L-alanyl-L-phenylalanyl-L-phenylalanyl-D-tryptophyl-L-lysyl-L-threonyl-D-phenylalanyl-L-threonyl-L-seryl-L-cysteine cyclic (3->14) disulfide] (H-A[dA]CKAFF[dW]KT[dF]TSC-OH; disulfide 3-14) | no significant inhibition | 132 ± 69.4 ng/mL | 77.8 ± 19.6 ng/mL | 20% | 53% | no significant inhibition | – | – | – | –
C[C@H](N)C(=O)NCC(=O)N[C@H]1CSSC[C@@H](C(=O)O)NC(=O)[C@H](CO)NC(=O)[C@H]([C@@H](C)O)NC(=O)[C@H](Cc2ccccc2)NC(=O)[C@H]([C@@H](C)O)NC(=O)[C@H](CCCCN)NC(=O)[C@H](Cc2c[nH]c3ccccc23)NC(=O)[C@H](Cc2ccccc2)NC(=O)[C@H](Cc2ccccc2)NC(=O)[C@H](CC(N)=O)NC(=O)[C@H](CCCCN)NC1=O [Somatostatin] | – | – | – | 0% | 86.6% and 84.9% and 89.7% and 93% | – | inhibits the increase | decrease | inhibits the increase | decrease
